Activity calls are given as the source filed them. The rule behind the calls is not given here.
Columns and labels:
[1] = Apparent clearance during terminal phase in male Sprague-Dawley rat at 2 mg/kg, iv measured for 24 hrs by LC/MS analysis; format: ADME, organism-based; details: in vivo
[2] = target: T1, Tyrosine-protein phosphatase non-receptor type 11 (Homo sapiens) (UniProt Q06124); assay: Inhibition of SHP2 in human MV4-11 cells assessed as downregulation of phosphorylated Akt level incubated for 12 hrs by Western blot analysis; format: cell-based; details: dose 0-5 µM
T1 sequence (whole entry): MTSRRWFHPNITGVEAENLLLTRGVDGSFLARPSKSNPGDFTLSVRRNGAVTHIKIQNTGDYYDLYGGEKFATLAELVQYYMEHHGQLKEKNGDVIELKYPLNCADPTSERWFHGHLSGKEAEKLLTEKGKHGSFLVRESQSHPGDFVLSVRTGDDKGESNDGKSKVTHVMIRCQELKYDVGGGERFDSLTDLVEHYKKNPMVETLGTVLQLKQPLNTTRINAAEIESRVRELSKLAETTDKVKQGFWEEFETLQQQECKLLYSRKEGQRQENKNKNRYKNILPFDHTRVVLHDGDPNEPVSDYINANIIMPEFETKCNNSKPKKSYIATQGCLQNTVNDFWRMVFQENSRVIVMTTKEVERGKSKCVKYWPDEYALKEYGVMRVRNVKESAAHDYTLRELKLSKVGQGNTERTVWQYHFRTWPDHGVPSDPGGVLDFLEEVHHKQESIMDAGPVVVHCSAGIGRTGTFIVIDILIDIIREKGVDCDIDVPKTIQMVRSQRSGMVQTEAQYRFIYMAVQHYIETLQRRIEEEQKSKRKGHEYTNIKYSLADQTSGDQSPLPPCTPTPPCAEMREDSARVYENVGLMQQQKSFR

MV4-11 [3] = assay: Antitumor immunity against human MV4-11 cells xenografted in BALB/C nude mouse model assessed as suppression of CD206+/Ly6C+ M2-like tumor associated macrophages in lymphocytes at 10 to 30 mg/kg, IG administered once daily for 18 days by flow cytometric analysis; format: functional, organism-based; details: dose 10-30 mg/kg, time 18.0 day
[4] = Apparent volume of distribution during terminal phase in male Sprague-Dawley rat at 2 mg/kg, iv measured for 24 hrs by LC/MS analysis; format: ADME, organism-based; details: in vivo
[5] = target: T2, Tyrosine-protein phosphatase non-receptor type 1 (Homo sapiens) (UniProt P18031); assay: Inhibition of PTP1B (unknown origin) using DiFMUP as substrate at 10 uM preincubated with compound for 60 mins followed by substrate addition and measured after 30 mins by fluorescence based microplate reader analysis relative to control; details: time 90.0 min
T2 sequence (whole entry): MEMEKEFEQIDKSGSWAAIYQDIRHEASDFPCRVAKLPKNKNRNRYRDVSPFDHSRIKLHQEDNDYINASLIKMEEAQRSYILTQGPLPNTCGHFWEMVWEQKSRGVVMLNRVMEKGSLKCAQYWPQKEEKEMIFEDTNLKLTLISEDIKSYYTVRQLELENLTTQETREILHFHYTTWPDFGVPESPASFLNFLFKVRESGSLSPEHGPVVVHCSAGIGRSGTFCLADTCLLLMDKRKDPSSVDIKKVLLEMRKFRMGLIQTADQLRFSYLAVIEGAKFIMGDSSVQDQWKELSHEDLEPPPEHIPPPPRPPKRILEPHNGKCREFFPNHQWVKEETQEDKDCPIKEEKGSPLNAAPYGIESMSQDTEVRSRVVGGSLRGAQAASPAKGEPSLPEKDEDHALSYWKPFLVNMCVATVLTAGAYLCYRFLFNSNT

[6] = Tmax in male Sprague-Dawley rat at 10 mg/kg, po measured for 24 hrs by LC/MS analysis; format: ADME, organism-based; details: in vivo
MV4-11 [7] = assay: Antitumor activity against human MV4-11 cells xenografted in BALB/C nude mouse model assessed as suppression of tumor growth administered intragastrically as once daily dose for 18 days; format: functional, cell-based; details: dose 10-30 mg/kg, route ig, time 18.0 day
MV4-11 [8] = assay: Antitumor activity against human MV4-11 cells xenografted in BALB/C nude mouse model assessed as tumor growth inhibition at 30 mg/kg, IG administered once daily for 18 days relative to control; format: functional; details: MV4-11, po, 432 h, time 18 day, read-out: TGI
MV4-11 [9] = assay: Antitumor activity against human MV4-11 cells xenografted in BALB/C nude mouse model assessed as tumor growth inhibition at 10 mg/kg, IG administered once daily for 18 days relative to control; format: functional; details: MV4-11, po, 432 h, time 18 day, read-out: TGI
[10] = target: T1, Tyrosine-protein phosphatase non-receptor type 11 (Homo sapiens); assay: Inhibition of SHP2 in human MV4-11 cells assessed as downregulation of phosphorylated ERK level incubated for 12 hrs by Western blot analysis; format: cell-based; details: dose 0-5 µM
[11] = AUC (0 to infinity) in male Sprague-Dawley rat at 2 mg/kg, iv measured for 24 hrs by LC/MS analysis; format: ADME, organism-based; details: in vivo
[12] = Oral bioavailability in male Sprague-Dawley rat at 10 mg/kg measured for 24 hrs by LC/MS analysis; format: ADME, organism-based; details: in vivo
MV4-11 [13] = assay: Antitumor immunity against human MV4-11 cells xenografted in BALB/C nude mouse model assessed as reduction of IL-10 expression level in tumor at 30 mg/kg, IG administered once daily for 18 days by ELISA; format: functional, organism-based; details: time 18.0 day
[14] = Toxicity in BALB/C nude mouse xenografted with human […] cells assessed as animal death at 10 to 30 mg/kg, IG administered once daily for 18 days; format: organism-based; details: in vivo, po, 432 h, dose 10-30 mg/kg, time 18 day
[15] = Cmax in male Sprague-Dawley rat at 2 mg/kg, iv measured for 24 hrs by LC/MS analysis; format: ADME, organism-based; details: in vivo
[16] = Cmax in male Sprague-Dawley rat at 10 mg/kg, po measured for 24 hrs by LC/MS analysis; format: ADME, organism-based; details: in vivo
[17] = target: T3, Tyrosine-protein phosphatase non-receptor type 11 (Homo sapiens, UniProt Q06124); assay: Allosteric inhibition of N-terminal His-tagged human recombinant SHP2 extracted from Escherichia coli using DiFMUP as substrate preincubated with compound for 60 mins followed by substrate addition and measured after 30 mins by fluorescence based microplate reader analysis
T3 sequence (Q06124 whole entry): T1 sequence (whole entry)

[18] = Tmax in male Sprague-Dawley rat at 2 mg/kg, iv measured for 24 hrs by LC/MS analysis; format: ADME, organism-based; details: in vivo
MV4-11 [19] = assay: Antitumor activity against human MV4-11 cells xenografted in BALB/C nude mouse model assessed as reduction in Ki67 expression administered intragastrically as once daily dose for 18 days by immunohistochemistry staining based analysis; format: functional, cell-based; details: dose 10-30 mg/kg, route ig, time 18.0 day
[20] = Half life in male Sprague-Dawley rat at 2 mg/kg, iv measured for 24 hrs by LC/MS analysis; format: ADME, organism-based; details: in vivo
MV4-11 [21] = assay: Antiproliferative activity against human MV4-11 cells assessed as inhibition of cell proliferation incubated for 72 hrs by CCK-8 assay; format: functional, cell-based
[22] = AUC (0 to infinity) in male Sprague-Dawley rat at 10 mg/kg, po measured for 24 hrs by LC/MS analysis; format: ADME, organism-based; details: in vivo
[23] = target: T1, Tyrosine-protein phosphatase non-receptor type 11 (Homo sapiens); assay: Inhibition of SHP2 PTP domain (unknown origin) using DiFMUP as substrate at 10 uM preincubated with compound for 60 mins followed by substrate addition and measured after 30 mins by fluorescence based microplate reader analysis relative to control; details: time 90.0 min
MV4-11 [24] = assay: Antitumor immunity against human MV4-11 cells xenografted in BALB/C nude mouse model assessed as reduction in F4/80+/CD206+ M2-like tumor associated macrophages at 10 to 30 mg/kg, IG administered once daily for 18 days by immunofluorescence staining […]; format: functional, organism-based; details: dose 10-30 mg/kg, time 18.0 day
MV4-11 [25] = assay: Antitumor activity against human MV4-11 cells xenografted in BALB/C nude mouse model assessed as appearance of shrunken nuclei in tumor at 10 to 30 mg/kg, IG administered once a day for 18 days by H and E staining based analysis; format: functional, organism-based; details: dose 10-30 mg/kg, time 18.0 day
MV4-11 [26] = assay: Potency index, ratio of TNO155 IC50 to test compound IC50 for antiproliferative activity against human MV4-11 cells assessed as inhibition of cell proliferation incubated for 72 hrs by CCK-8 assay; format: functional
MV4-11 [27] = assay: Antitumor activity against human MV4-11 cells xenografted in BALB/C nude mouse model assessed as appearance of pyknotic nuclei in tumor at 10 to 30 mg/kg, IG administered once a day for 18 days by H and E staining based analysis; format: functional, organism-based; details: dose 10-30 mg/kg, time 18.0 day
[28] = Half life in male Sprague-Dawley rat at 10 mg/kg, po measured for 24 hrs by LC/MS analysis; format: ADME, organism-based; details: in vivo
[29] = Toxicity in BALB/C nude mouse xenografted with human […] cells assessed as change in body weight at 10 to 30 mg/kg, IG administered once daily for 18 days; format: organism-based; details: in vivo, po, 432 h, dose 10-30 mg/kg, time 18 day
[30] = target: Tyrosine-protein phosphatase non-receptor type 6 (Homo sapiens) (UniProt P29350); assay: Inhibition of SHP1 (unknown origin) using DiFMUP as substrate at 10 uM preincubated with compound for 60 mins followed by substrate addition and measured after 30 mins by fluorescence based microplate reader analysis relative to control; details: time 90.0 min
Chain of Tyrosine-protein phosphatase non-receptor type 6 (Homo sapiens) (P29350 whole entry): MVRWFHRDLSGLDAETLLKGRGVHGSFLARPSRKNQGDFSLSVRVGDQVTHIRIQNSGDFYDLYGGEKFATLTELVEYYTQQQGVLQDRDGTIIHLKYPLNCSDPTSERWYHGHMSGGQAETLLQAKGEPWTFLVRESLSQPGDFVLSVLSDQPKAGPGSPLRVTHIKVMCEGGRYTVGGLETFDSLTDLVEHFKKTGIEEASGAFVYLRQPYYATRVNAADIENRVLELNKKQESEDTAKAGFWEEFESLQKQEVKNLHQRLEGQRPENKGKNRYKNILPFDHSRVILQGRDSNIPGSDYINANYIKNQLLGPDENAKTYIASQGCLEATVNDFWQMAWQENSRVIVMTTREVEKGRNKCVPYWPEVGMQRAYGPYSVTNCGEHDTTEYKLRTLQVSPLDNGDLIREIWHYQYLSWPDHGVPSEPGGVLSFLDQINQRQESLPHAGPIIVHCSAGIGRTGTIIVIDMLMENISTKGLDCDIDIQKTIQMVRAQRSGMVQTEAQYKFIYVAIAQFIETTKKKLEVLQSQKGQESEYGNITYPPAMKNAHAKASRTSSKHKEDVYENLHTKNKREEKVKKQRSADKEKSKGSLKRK

[31] = Toxicity in BALB/C nude mouse xenografted with human […] cells assessed as change in body weight at 30 mg/kg, IG administered once daily for 18 days; format: organism-based; details: in vivo, po, 432 h, time 18 day
[32] = Toxicity in BALB/C nude mouse xenografted with human […] cells assessed as animal death at 30 mg/kg, IG administered once daily for 18 days; format: organism-based; details: in vivo, po, 432 h, time 18 day
[33] = target: T3, Tyrosine-protein phosphatase non-receptor type 11; assay: Inhibition of SHP2 (unknown origin)

With `N[C@@H]1c2ccccc2CC12CCN(c1cnc(Sc3cccc(NC(=O)c4cnccc4O)c3Cl)cn1)CC2` the CLz/F [1] was 29 mL/min/kg, the inhibition [2] was “Dose-Dependent Effect” and the Activity (MV4-11 [3]) was “Active”. It also gave a Vz/F [4] of 11.04 L/kg, an inhibition [5] of 8.7% and a Tmax [6] of 3.24 h. For the same molecule, the Activity (MV4-11 [7]) was “Dose-Dependent Effect”, the inhibition in vivo at 30 mg/kg (MV4-11 [8]) was 69.5% and the inhibition in vivo at 10 mg/kg (MV4-11 [9]) was 45.9%. The inhibition [10] was “Dose-Dependent Effect”, the AUC(0-inf) [11] was 1260 ng·h/mL and the bioavailability [12] was 11.9%. For the same molecule, the Activity (MV4-11 [13]) was “Active”, the Activity [14] was “Non-Toxic” and the Cmax [15] was 681 ng/mL. The Cmax [16] was 70.1 ng/mL, the IC50 [17] was 0.13 nM and the Tmax [18] was 1.8 min. The Activity (MV4-11 [19]) was “Dose-Dependent Effect”, the half-life [20] was 4.26 h and the IC50 (MV4-11 [21]; Homo sapiens, MV4-11, 72 h) was 3.5 nM. The AUC(0-inf) [22] was 762 ng·h/mL, the inhibition [23] was 13.2% and the Activity (MV4-11 [24]) was “Active”. The Activity (MV4-11 [25]) was “Active”, the “Ratio IC50” value (MV4-11 [26]) was about 11 and the Activity (MV4-11 [27]) was “Active”. For the same molecule, the half-life [28] was 4.66 h, the Activity [29] was “Non-Toxic” and the inhibition [30] was 29.3%.
In the case of `C[C@@H]1OCC2(CCN(c3cnc(Sc4ccnc(N)c4Cl)c(N)n3)CC2)[C@@H]1N` [BATOPROTAFIB], the Activity [31] is reported as “Non-Toxic”, the inhibition in vivo at 30 mg/kg (MV4-11 [8]) is reported as 70.8% and the IC50 (MV4-11 [21]; mv4-11) is reported as 39 nM. For the same molecule, the Activity [32] was “Non-Toxic”.
`Cc1nc(N2CCC3(CC2)CO[C@@H](C)[C@H]3N)c(CO)nc1Sc1ccnc(N)c1Cl` [VOCIPROTAFIB] gave an IC50 [33] of 1.5 nM.

From ChEMBL document CHEMBL5614460, “Discovery of novel substituted pyridine carboxamide derivatives as potent allosteric SHP2 inhibitors” (Eur J Med Chem, 2024)
